In the assay the target is T1, recombinant human 11 β-HSD1 (Homo sapiens, UniProt P28845).
T1 construct: made in house; host or cells: E. coli
T1 sequence (P28845 whole entry): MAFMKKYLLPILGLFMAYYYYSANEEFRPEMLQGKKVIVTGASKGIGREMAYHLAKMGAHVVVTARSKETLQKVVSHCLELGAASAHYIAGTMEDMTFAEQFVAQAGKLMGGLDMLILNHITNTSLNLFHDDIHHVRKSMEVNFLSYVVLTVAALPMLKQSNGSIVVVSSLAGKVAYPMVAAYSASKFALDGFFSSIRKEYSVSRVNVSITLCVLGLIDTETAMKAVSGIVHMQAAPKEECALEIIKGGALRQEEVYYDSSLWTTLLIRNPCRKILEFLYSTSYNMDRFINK
Put plainly: 11 β-HSD1 SPA Assay (Scintillation Proximity Assay). The class given is biochemical. How it is done:
(§1) Inhibition of 11 βHSD1 by test compounds was assessed in vitro by a Scintillation Proximity Assay (SPA). The assay was carried out in a 384-well assay plate in a total well volume of 26 μl and contained a mixture of tritiated cortisone substrate (40 nM), NADPH cofactor (1 mM), inhibitor in serial dilutions ([…] to 10 μM), and purified E. coli-expressed recombinant human 11 βHSD1 (30-100 nM) in assay buffer (50 mM HEPES, 100 mM KCl, 5 mM NaCl, and 2 mM MgCl2, pH7.4). Following mixing, the plate was incubated for 2 hours at room temperature. Reactions were stopped by addition of 30 μl of protein A YSi SPA beads (10 mg/ml) that had been pre-incubated with glycyrrhetinic acid (1 mM) and a monoclonal cortisol antibody (3 μg/ml). The plate was then incubated overnight at room temperature prior to reading on a Microbeta counter. Percent inhibition of each compound was calculated based on the background and the maximal signals. Wells that contained substrate without compound or enzyme were used as the background signal, while the wells that contained substrate and enzyme without any compound were used as the maximal signal. The calculation of the IC50 values for the inhibitors was performed by Activity Base.
as §1, with “β-HSD1” for “βHSD1”
Regarding `CC(C)(Oc1ccc(Cl)c(F)c1)C(=O)N[C@H]1C[C@H]2CC[C@@H](C1)N2c1ccc(S(C)(=O)=O)cc1` [Example 241, 2-[(4-chloro-3-fluorophenyl)oxy]-2-methyl-N-{8-[4-(methylsulfonyl)phenyl]-8-azabicyclo[3.2.1]oct-3-endo-yl}propanamide], the IC50 was under 2000 nM.

For `CC(C)(CN1CCCC1)NC(=O)c1ccc(N2[C@@H]3CC[C@H]2C[C@@H](NC(=O)C(C)(C)Oc2ccc(Cl)cc2Cl)C3)nc1` [Example 350, 6-(3-endo-{[2-(2,4-dichlorophenoxy)-2-methylpropanoyl]amino}-8-azabicyclo[3.2.1]oct-8-yl)-N-[2-methyl-1-(pyrrolidin-1-yl)propan-2-yl]pyridine-3-carboxamide], the IC50 is under 200 nM.

Consider `CC(C)(Oc1ccc(Cl)c(F)c1)C(=O)N[C@H]1C[C@H]2CC[C@@H](C1)N2c1ccc(S(N)(=O)=O)cn1` [Example 242, N-{8-[5-(aminosulfonyl)pyridin-2-yl]-8-azabicyclo[3.2.1]oct-3-endo-yl}-2-[(4-chloro-3-fluorophenyl)oxy]-2-methylpropanamide], for which the IC50 was under 200 nM.

In the case of `CC(C)(Oc1ncc(Cl)cc1F)C(=O)N[C@H]1C[C@H]2CC[C@@H](C1)N2c1ccc(C(N)=O)cn1` [Example 142, 6-[3-endo-({2-[(5-chloro-3-fluoropyridin-2-yl)oxy]-2-methylpropanoyl}amino)-8-azabicyclo[3.2.1]oct-8-yl]pyridine-3-carboxamide], the IC50 is under 200 nM.

Take `CC(C)(Oc1ccc(Cl)cc1F)C(=O)N[C@H]1C[C@H]2CC[C@@H](C1)N2c1ccc(S(C)(=O)=O)cn1` [Example 229, 2-[(4-chloro-2-fluorophenyl)oxy]-2-methyl-N-{8-[5-(methylsulfonyl)pyridin-2-yl]-8-azabicyclo[3.2.1]oct-3-endo-yl}propanamide]: the IC50 was under 200 nM.

With `CC(C)(Oc1cc(OCCO)c(Cl)cc1Cl)C(=O)NC1CC2CCC(C1)N2c1ccc(C(=O)NC2CC2(F)F)cn1` (stereo not drawn) [Example 392, 6-[3-endo-({2-[2,4-dichloro-5-(2-hydroxyethoxy)phenoxy]-2-methylpropanoyl}amino)-8-azabicyclo[3.2.1]oct-8-yl]-N-(2,2-difluorocyclopropyl)pyridine-3-carboxamide], the IC50 is under 200 nM.

`CC(C)(Oc1cc(F)c(F)cc1Cl)C(=O)N[C@H]1C[C@H]2CC[C@@H](C1)N2c1ccc(C(=O)NCC(F)F)cn1` [Example 442, 6-(3-endo-{[2-(2-chloro-4,5-difluorophenoxy)-2-methylpropanoyl]amino}-8-azabicyclo[3.2.1]oct-8-yl)-N-(2,2-difluoroethyl)pyridine-3-carboxamide]: the IC50 is under 200 nM.

On to `CC(C)(Oc1ccc(C(F)(F)F)cn1)C(=O)N[C@H]1C[C@H]2CC[C@@H](C1)N2c1ccc(S(C)(=O)=O)cc1` [Example 196, 2-methyl-N-{8-[4-(methylsulfonyl)phenyl]-8-azabicyclo[3.2.1]oct-3-endo-yl}-2-{[5-(trifluoromethyl)pyridin-2-yl]oxy}propanamide], for which the IC50 is under 2000 nM.

In the case of `CC(C)(Oc1ccc(Cl)c(C(F)(F)F)c1)C(=O)N[C@H]1C[C@H]2CC[C@@H](C1)N2c1ccc(C(N)=O)cn1` [Example 185], the IC50 was under 200 nM.

As for `COc1ccc(OC(C)(C)C(=O)N[C@H]2C[C@H]3CC[C@@H](C2)N3c2ccc(C(=O)NC3CC3)cn2)cc1` [Example 44, N-cyclopropyl-6-{3-endo-[(2-methyl-2-{[4-(methyloxy)phenyl]oxy}pro-panoyl)amino]-8-azabicyclo[3.2.1]oct-8-yl}pyridine-3-carboxamide], the IC50 is under 200 nM.

As to `CC(C)(Oc1ccc(F)cc1S(C)(=O)=O)C(=O)N[C@H]1C[C@H]2CC[C@@H](C1)N2c1ccc(C(N)=O)cn1` [Example 269, 6-{3-endo-[(2-{[4-fluoro-2-(methylsulfonyl)phenyl]oxy}-2-methylpropanoyl)amino]-8-azabicyclo[3.2.1]oct-8-yl}pyridine-3-carboxamide], the IC50 is under 200 nM.

With `CC(C)NC(=O)c1ccc(N2[C@@H]3CC[C@H]2C[C@@H](NC(=O)C(C)(C)Oc2ccc(Cl)c(Cl)c2)C3)nc1` [Example 79, 6-[3-endo-({2-[(3,4-dichlorophenyl)oxy]-2-methylpropanoyl}amino)-8-azabicycio[3.2.1]oct-8-yl]-N-(1-methylethyl)pyridine-3-carboxamide], the IC50 is under 200 nM.

For the molecule `CC(C)(Oc1ccc(Cl)cc1Cl)C(=O)NC1CC2CCC(C1)N2c1ccc(C(=O)N2CC[C@H](O)C2)cn1` (stereo partly drawn) [Example 462, 2-(2,4-dichlorophenoxy)-N-[8-(5-{[(3s)-3-hydroxypyrrolidin-1-yl]carbonyl}pyridin-2-yl)-8-azabicyclo[3.2.1]oct-3-endo-yl]-2-methylpropanamide], the IC50 was under 200 nM.

As to `CC(C)(Oc1ccc(F)c(Cl)c1Cl)C(=O)N[C@H]1C[C@H]2CC[C@@H](C1)N2c1ccc(S(C)(=O)=O)cn1` [Example 153, 2-[(2,3-dichloro-4-fluorophenyl)oxy]-2-methyl-N-{8-[5-(methylsulfonyl)pyridin-2-yl]-8-azabicyclo[3.2.1]oct-3-endo-yl}propanamide], the IC50 is under 200 nM.

In the case of `CC(C)(Oc1cc(C(C)(C)O)c(Cl)cc1F)C(=O)N[C@H]1C[C@H]2CC[C@@H](C1)N2c1ccc(C(=O)NCC(F)F)cn1` [Example 466, 6-(3-endo-(2-(4-chloro-2-fluoro-5-(2-hydroxypropan-2-yl)phenoxy)-2-methylpropanamido)-8-azabicyclo[3.2.1]octan-8-yl)-N-(2,2-difluoroethyl)nicotinamide], the concentration for half-maximal inhibition (IC50) was under 200 nM.

`CC(C)(Oc1cc(F)ccc1C(F)(F)F)C(=O)N[C@H]1C[C@H]2CC[C@@H](C1)N2c1ccc(S(C)(=O)=O)cn1` [Example 267, 2-{[5-fluoro-2-(trifluoromethyl)phenyl]oxy}-2-methyl-N-{8-[5-(methylsulfonyl)pyridin-2-yl]-8-azabicyclo[3.2.1]oct-3-endo-yl}propanamide]: the IC50 was under 200 nM.

Turning to `CC(C)(Oc1ccc(Cl)cc1Cl)C(=O)N[C@H]1C[C@H]2CC[C@@H](C1)N2c1ccc(C(=O)NCC(F)(F)C(F)(F)F)cn1` [Example 126, 6-[3-endo-({2-[(2,4-dichlorophenyl)oxy]-2-methylpropanoyl}amino)-8-azabicyclo[3.2.1]oct-8-yl]-N-(2,2,3,3,3-pentafluoropropyl)pyridine-3-carboxamide], the IC50 is under 200 nM.

As to `CC(C)(Oc1ccc(Cl)cc1Cl)C(=O)N[C@H]1C[C@H]2CC[C@@H](C1)N2c1ccc(C(=O)NC2CC2)cn1` [Example 31, N-cyclopropyl-6-[3-endo-({2-[(2,4-dichlorophenyl)oxy]-2-methylpropanoyl}amino)-8-azabicyclo[3.2.1]oct-8-yl]pyridine-3-carboxamide], the IC50 was under 200 nM.

Turning to `CC(C)(Oc1ccc(F)cc1Cl)C(=O)NC1CC2CCC(C1)N2c1ccc(C(=O)NC2CC2(F)F)cn1` (stereo not drawn) [Example 349, 6-(3-endo-{[2-(2-chloro-4-fluorophenoxy)-2-methylpropanoyl]amino}-8-azabicyclo[3.2.1]oct-8-yl)-N-(2,2-difluorocyclopropyl)pyridine-3-carboxamide], the IC50 was under 200 nM.

As for `CC(C)c1cc(Cl)ccc1OC(C)(C)C(=O)N[C@H]1C[C@H]2CC[C@@H](C1)N2c1ccc(C(=O)NCC(F)(F)F)cn1` [Example 353, 6-[3-endo-({2-[4-chloro-2-(propan-2-yl)phenoxy]-2-methylpropanoyl}amino)-8-azabicyclo[3.2.1]oct-8-yl]-N-(2,2,2-trifluoroethyl)pyridine-3-carboxamide], the 50% inhibitory concentration (IC50) was under 200 nM.

Turning to `CC(C)(Oc1ncc(Cl)cc1F)C(=O)N[C@H]1C[C@H]2CC[C@@H](C1)N2c1ccc(S(C)(=O)=O)cc1` [Example 195, 2-[(5-chloro-3-fluoropyridin-2-yl)oxy]-2-methyl-N-{8-[4-(methylsulfonyl)phenyl]-8-azabicyclo[3.2.1]oct-3-endo-yl}propanamide], the IC50 was under 2000 nM.

Consider `O=C(NC1CC1)c1ccc(N2[C@@H]3CC[C@H]2C[C@@H](NC(=O)C2(c4ccc(Cl)cc4)CC2)C3)nc1` [Example 1, 6-[3-endo-({[1-(4-chlorophenyl)cyclopropyl]carbonyl}amino)-8-azabicyclo[3.2.1]oct-8-yl]-N-cyclopropylpyridine-3-carboxamide], for which the IC50 was under 200 nM.

Consider `C[C@H](NC(=O)c1ccc(N2C3CCC2CC(NC(=O)C(C)(C)Oc2ncc(F)cc2C(F)F)C3)nc1)C(F)(F)F` (stereo partly drawn) [Example 439, 6-{3-endo-[(2-{[3-(difluoromethyl)-5-fluoropyridin-2-yl]oxy}-2-methylpropanoyl)amino]-8-azabicyclo[3.2.1]oct-8-yl}-N-[(2S)-1,1,1-trifluoropropan-2-yl]pyridine-3-carboxamide], for which the concentration for half-maximal inhibition (IC50) was under 2000 nM.

The values are drawn from patent publication US8163771B2, “11 β-HSD1 modulators” (Exelixis, Inc., priority 2008, dated 2012).
